These results are taken from ChEMBL document CHEMBL5620360, “Design, synthesis and biological evaluation of 4-(4-aminophenoxy)picolinamide derivatives as potential antitumor agents” (Eur J Med Chem, 2023).

Assay [1] has as its system A549. As to the kind of experiment: cells. The settings on record: Homo sapiens, A549, 72 h.
Assay [2] has as its system HeLa. As to the kind of experiment: Antiproliferative activity against human HeLa cells assessed as reduction in cell viability incubated for 72 hrs by MTT assay. It is filed as functional, cell-based.
Assay [3] relates to MCF7. Kind of assay: cells. As to conditions: Homo sapiens, MCF7, 72 h; call rule not given here.
Assay [4] relates to A549. As to the kind of experiment: Induction of apoptosis in human A549 cells assessed as early apoptotic cells at 5 uM measured after 24 hrs by AnnexinV-FITC/PI staining based flow cytometry (reference value: 1.26%). It is filed as functional.
Assay [5] concerns A549. Kind of assay: Induction of cell cycle arrest in human A549 cells assessed as accumulation of cells at G2 phase at 5 uM incubated for 24 hrs by propidium iodide staining based flow cytometry (reference value: 7.36%). It is filed as functional.
For assay [6], the system named is A549. Kind of assay: Induction of apoptosis in human A549 cells assessed as viable cells at 5 uM measured after 24 hrs by AnnexinV-FITC/PI staining based flow cytometry (reference value: 93.25%). It is filed as functional. The settings on record: read-out: Activity.
In assay [7] the test system is A549. Kind of assay: Induction of cell cycle arrest in human A549 cells assessed as accumulation of cells at G1 phase at 5 uM incubated for 24 hrs by propidium iodide staining based flow cytometry (reference value: 54.46%). Format: functional.
For assay [8], the system named is A549. As to the kind of experiment: Induction of apoptosis in human A549 cells assessed as late apoptotic cells at 5 uM measured after 24 hrs by AnnexinV-FITC/PI staining based flow cytometry (reference value: 1.47%). Format: functional.
Assay [9] has as its system A549. As to the kind of experiment: Induction of cell cycle arrest in human A549 cells assessed as accumulation of cells at S phase at 5 uM incubated for 24 hrs by propidium iodide staining based flow cytometry (reference value: 38.18%). It is filed as functional.
The test system of assay [10] is A549. As to the kind of experiment: Induction of apoptosis in human A549 cells assessed as necrotic cells at 5 uM measured after 24 hrs by AnnexinV-FITC/PI staining based flow cytometry (reference value: 4.01%). Format: functional.
For assay [11], the system named is A549.
Assay [12] concerns MCF7.
The mark [13] stands for this setting: Homo sapiens, HeLa, 72 h, read-out: IC50.

SMILES strings stand for the structures.

On to `O=C(Nc1ccc(Oc2ccnc(C(=O)N3CCCC3)c2)cc1)c1cn(-c2ccc(F)cc2)c2ncccc2c1=O`, for which the values for the IC50 in assay [1], in [2] (setting [13]) and in [3] were 3.47 µM, 5.28 µM and 15 µM, respectively.

Regarding `CCCNC(=O)c1cc(Oc2ccc(NC(=O)c3cn(-c4ccc(Cl)cc4)c4ncccc4c3=O)cc2F)ccn1`, the figures for the IC50 in [1], in [2] (setting [13]) and in assay [3] were 45.1 µM, 65.3 µM and 52.9 µM, respectively.

For the compound `COc1cc2nccc(Oc3ccc(NC(=O)C4(C(=O)Nc5ccc(F)cc5)CC4)cc3)c2cc1OC` [CABOZANTINIB], the IC50 in assay [1] amounted to 0.62 µM; in assay [2] (setting [13]), 1.17 µM; in [3], 3.15 µM. Also, the Activity in [4] was determined as 2.33%; in assay [5], 11.66%; in assay [7] it was 56.19%; in assay [8], 4.25%; in assay [9], 32.15%; in assay [10], 5.19%. Moreover, the viability at 5 µM in assay [6] was found to be 88.2%.

On to `COc1ccc(-n2cc(C(=O)Nc3ccc(Oc4ccnc(C(=O)N5CCCC5)c4)c(F)c3)c(=O)c3cccnc32)cc1`, for which the values for the IC50 result in [11], in assay [2] (hela) and in assay [3] were “Not Active”, “Not Active” and 77 µM, respectively.

Regarding `O=C(NCCCN1CCOCC1)c1cc(Oc2ccc(NC(=O)c3cn(-c4ccc(Br)cc4F)c4ncccc4c3=O)cc2F)ccn1`, the figures for the IC50 in [1], in assay [2] (setting [13]) and in [3] were 1.18 µM, 1.85 µM and 3.51 µM, respectively.

In the case of `O=C(Nc1ccc(Oc2ccnc(C(=O)N3CCCC3)c2)c(F)c1)c1cn(-c2ccc(Br)cc2F)c2ncccc2c1=O`, the results for the IC50 entry in assay [11], in assay [2] (setting [13]) and in assay [12] were “Not Active”, 50.8 µM and “Not Active”, respectively.

Take `O=C(NCCCN1CCOCC1)c1cc(Oc2ccc(NC(=O)c3cn(-c4ccc(F)c(Cl)c4)c4ncccc4c3=O)cc2)ccn1`: the IC50 in [1] amounted to 7.88 µM; in [2] (setting [13]) it was 39 µM; in assay [3] it was 43 µM.

`O=C(Nc1ccc(Oc2ccnc(C(=O)N3CCCC3)c2)c(F)c1)c1cn(-c2ccc(Cl)cc2)c2ncccc2c1=O`: the IC50 in assay [1] came out at 79.3 µM; in assay [2] (setting [13]) it was 75.4 µM; in [3], 82.1 µM.

On to `O=C(Nc1ccc(Oc2ccnc(C(=O)N3CCCC3)c2)c(F)c1)c1cn(-c2ccc(F)c(Cl)c2)c2ncccc2c1=O`, for which the IC50 worked out at 0.98 µM in assay [1], 1.28 µM in assay [2] (setting [13]) and 2.96 µM in [3].

Take `CCCNC(=O)c1cc(Oc2ccc(NC(=O)c3cn(-c4ccc(Br)cc4)c4ncccc4c3=O)cc2)ccn1`: the IC50 entry in assay [11] was “Not Active”; in assay [2] (setting [13]) it was 65.9 µM; in assay [3], 73.9 µM.

Consider `CCCNC(=O)c1cc(Oc2ccc(NC(=O)c3cn(-c4ccc(Br)cc4F)c4ncccc4c3=O)cc2F)ccn1`, for which the IC50 in assay [1] is 18.7 µM; in assay [2] (setting [13]), 41.8 µM; in assay [3], 17.3 µM.

Turning to `O=C(NCCCN1CCOCC1)c1cc(Oc2ccc(NC(=O)c3cn(-c4ccc(Br)cc4)c4ncccc4c3=O)cc2)ccn1`, the figures for the IC50 in [1], in [2] (setting [13]) and in [3] were 0.74 µM, 9.76 µM and 11 µM, respectively.

Take `CCCNC(=O)c1cc(Oc2ccc(NC(=O)c3cn(-c4ccc(Br)cc4)c4ncccc4c3=O)cc2F)ccn1`: the IC50 was 8.01 µM in assay [1], 35.9 µM in [2] (setting [13]) and 10.4 µM in assay [3].

Regarding `O=C(Nc1ccc(Oc2ccnc(C(=O)N3CCCC3)c2)cc1)c1cn(-c2ccc(Br)cc2)c2ncccc2c1=O`, the IC50 entry in [11] is “Not Active”; in [2] (setting [13]), 75.5 µM; in [3], 62.1 µM.

For `O=C(NCCCN1CCOCC1)c1cc(Oc2ccc(NC(=O)c3cn(-c4ccc(F)cc4)c4ncccc4c3=O)cc2)ccn1`, the values for the IC50 in assay [1], in [2] (setting [13]) and in assay [3] were 4.18 µM, 7.92 µM and 5.75 µM, respectively.

Regarding `O=C(Nc1ccc(Oc2ccnc(C(=O)N3CCCC3)c2)c(F)c1)c1cn(-c2ccc(Br)cc2)c2ncccc2c1=O`, the results for the IC50 result in [11], in assay [2] (setting [13]) and in assay [3] were “Not Active”, 42.3 µM and 44.3 µM, respectively.

As to `O=C(NCCCN1CCOCC1)c1cc(Oc2ccc(NC(=O)c3cn(-c4ccc(Br)cc4)c4ncccc4c3=O)cc2F)ccn1`, the IC50 came out at 2.91 µM in [1], 4.57 µM in assay [2] (setting [13]) and 4.87 µM in [3].

Turning to `O=C(NCCCN1CCOCC1)c1cc(Oc2ccc(NC(=O)c3cn(-c4ccccc4)c4ncccc4c3=O)cc2F)ccn1`, the figures for the half-inhibitory concentration (IC50) in assay [1], in assay [2] (setting [13]) and in assay [3] were 9.57 µM, 7.02 µM and 23.7 µM, respectively.

For `O=C(Nc1ccc(Oc2ccnc(C(=O)N3CCCC3)c2)c(F)c1)c1cn(-c2ccccc2)c2ncccc2c1=O`, the IC50 result is “Not Active” in assay [11], 60.5 µM in assay [2] (setting [13]) and 69.4 µM in [3].

As to `CCCNC(=O)c1cc(Oc2ccc(NC(=O)c3cn(-c4ccc(F)cc4)c4ncccc4c3=O)cc2F)ccn1`, the IC50 in [1] was 19.3 µM; in assay [2] (setting [13]), 23.8 µM; in assay [3], 40.7 µM.

For `CCCNC(=O)c1cc(Oc2ccc(NC(=O)c3cn(-c4ccc(OC)cc4)c4ncccc4c3=O)cc2F)ccn1`, the IC50 in [1] is 51.1 µM; in assay [2] (setting [13]), 67.5 µM; in assay [3], 71.3 µM.

Take `O=C(NCCCN1CCOCC1)c1cc(Oc2ccc(NC(=O)c3cn(-c4ccc(Cl)cc4)c4ncccc4c3=O)cc2F)ccn1`: the IC50 in assay [1] came to 3.87 µM; in assay [2] (setting [13]) it was 29.4 µM; in assay [3] it was 39.3 µM.

On to `O=C(NCCCN1CCOCC1)c1cc(Oc2ccc(NC(=O)c3cn(-c4ccc(F)cc4)c4ncccc4c3=O)cc2F)ccn1`, for which the IC50 in [1] is 0.58 µM; in assay [2] (setting [13]), 1.57 µM; in [3] it was 4.96 µM.

On to `O=C(Nc1ccc(Oc2ccnc(C(=O)N3CCCC3)c2)cc1)c1cn(-c2ccc(Br)cc2F)c2ncccc2c1=O`, for which the figures for the IC50 in assay [1], in assay [2] (hela) and in assay [3] were 56.8 µM, “Not Active” and 78.5 µM, respectively.

Regarding `CCCNC(=O)c1cc(Oc2ccc(NC(=O)c3cn(-c4ccc(OC)cc4)c4ncccc4c3=O)cc2)ccn1`, the IC50 in [1] was determined as 0.96 µM; in [2] (setting [13]), 2.01 µM; in assay [3], 2.86 µM.

On to `O=C(Nc1ccc(Oc2ccnc(C(=O)N3CCCC3)c2)c(F)c1)c1cn(-c2ccc(F)cc2)c2ncccc2c1=O`, for which the IC50 in assay [1] came out at 1.62 µM; in [2] (setting [13]), 2.13 µM; in assay [3], 2.98 µM.

Take `COc1ccc(-n2cc(C(=O)Nc3ccc(Oc4ccnc(C(=O)NCCCN5CCOCC5)c4)c(F)c3)c(=O)c3cccnc32)cc1`: the IC50 came to 19.3 µM in assay [1], 17.4 µM in assay [2] (setting [13]) and 30.8 µM in assay [3].

As to `O=C(NCCCN1CCOCC1)c1cc(Oc2ccc(NC(=O)c3cn(-c4ccc(Br)cc4F)c4ncccc4c3=O)cc2)ccn1`, the IC50 worked out at 9.27 µM in assay [1], 7.96 µM in [2] (setting [13]) and 0.83 µM in assay [3].

Consider `CCCNC(=O)c1cc(Oc2ccc(NC(=O)c3cn(-c4ccc(F)cc4)c4ncccc4c3=O)cc2)ccn1`, for which the IC50 was found to be 0.89 µM in assay [1], 1.09 µM in assay [2] (setting [13]) and 3.01 µM in [3].

Turning to `O=C(Nc1ccc(Oc2ccnc(C(=O)N3CCCC3)c2)cc1)c1cn(-c2ccccc2)c2ncccc2c1=O`, the IC50 in assay [1] came out at 47.6 µM; in assay [2] (setting [13]) it was 41.2 µM; in assay [3], 38.1 µM.

On to `CCCNC(=O)c1cc(Oc2ccc(NC(=O)c3cn(-c4ccc(F)c(Cl)c4)c4ncccc4c3=O)cc2F)ccn1`, for which the IC50 came out at 34.8 µM in assay [1], 43.6 µM in assay [2] (setting [13]) and 39 µM in assay [3].

As for `COc1ccc(-n2cc(C(=O)Nc3ccc(Oc4ccnc(C(=O)N5CCCC5)c4)cc3)c(=O)c3cccnc32)cc1`, the IC50 in [1] stood at 33.6 µM; in [2] (setting [13]), 57 µM; in assay [3], 62.1 µM.

Take `CCCNC(=O)c1cc(Oc2ccc(NC(=O)c3cn(-c4ccc(Br)cc4F)c4ncccc4c3=O)cc2)ccn1`: the IC50 entry in assay [11] was “Not Active”; in assay [2] (setting [13]), 80.5 µM; in [12] it was “Not Active”.

As to `CCCNC(=O)c1cc(Oc2ccc(NC(=O)c3cn(-c4ccccc4)c4ncccc4c3=O)cc2F)ccn1`, the IC50 came out at 67.2 µM in assay [1], 75 µM in assay [2] (setting [13]) and 74 µM in assay [3].

Regarding `COc1ccc(-n2cc(C(=O)Nc3ccc(Oc4ccnc(C(=O)NCCCN5CCOCC5)c4)cc3)c(=O)c3cccnc32)cc1`, the IC50 in [1] came out at 16.2 µM; in [2] (setting [13]) it was 28.3 µM; in assay [3], 29.1 µM.

As to `O=C(Nc1ccc(Oc2ccnc(C(=O)N3CCCC3)c2)cc1)c1cn(-c2ccc(Cl)cc2)c2ncccc2c1=O`, the IC50 in [1] stood at 57.1 µM; in assay [2] (setting [13]), 67 µM; in assay [3] it was 69.8 µM.
